Experiments:
CYP2J2 = molecular target: T1, CYP2J2 (Homo sapiens, UniProt P51589); assay: Inhibition of CYP2J2-mediated astemizole metabolism in hiPSC-CM; assay type: cell-based; parameters: endogenous in cells; host or cells: hiPSC-CM (from human foreskin fibroblasts); settings: 2 μM drug co-incubated with 1 μM astemizole
T1 sequence (P51589 1-502): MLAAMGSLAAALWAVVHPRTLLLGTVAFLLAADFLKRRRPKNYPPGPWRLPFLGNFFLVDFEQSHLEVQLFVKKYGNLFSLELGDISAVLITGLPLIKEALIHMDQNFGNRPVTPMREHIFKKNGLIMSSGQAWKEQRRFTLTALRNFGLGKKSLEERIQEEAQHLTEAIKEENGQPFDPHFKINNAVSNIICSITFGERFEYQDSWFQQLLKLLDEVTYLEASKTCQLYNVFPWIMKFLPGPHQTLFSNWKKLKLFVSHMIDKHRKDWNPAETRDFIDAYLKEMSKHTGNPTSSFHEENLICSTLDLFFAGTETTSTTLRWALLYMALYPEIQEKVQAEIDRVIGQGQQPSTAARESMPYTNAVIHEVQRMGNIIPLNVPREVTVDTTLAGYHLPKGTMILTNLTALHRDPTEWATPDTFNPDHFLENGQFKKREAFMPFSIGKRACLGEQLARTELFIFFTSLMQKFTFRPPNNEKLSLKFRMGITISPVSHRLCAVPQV
Protocol: HiPSC-CM were seeded at a density 100,000 cell/well in a 12-well plate and differentiated for 30 days. […] The cells were then washed with 1×PBS twice and dislodged using Accutase® cell detachment solution. The cells were then pelleted at 2000 g for 10 min at 4° C. The supernatant was discarded and the pellets were resuspended in 100 μL of ice-cold ACN with 0.1 μM buspirone as an internal standard. The cells were sonicated for 15 min on ice to bring about complete cell lysis. The lysate was centrifuged at 10,000×g for 15 min at 4° C. The supernatant was collected and analyzed using LC/MS/MS.
The LC/MS/MS system consisted of an Agilent 1290 Infinity ultra-high pressure liquid chromatography (UPLC) system (Agilent Technologies Inc., Santa Clara, Calif.) interfaced with the AB SCIEX QTRAP® 5500 tandem mass spectrometry (MS/MS) system (AB SCIEX, Framingham, Mass.). The LC/MS/MS system was controlled by Analyst 1.4.2 software (Applied Biosystems) which performed all chromatographic peak integration. The ACQUITY UPLC BEH C18 column, 1.7 μM, 2.1×50 mm (Waters, Milford, Mass.), was used to achieve chromatographic separation. The temperatures of the column and samples were maintained at 45° C. and 4° C. respectively. The mobile phases were 0.2% acetic acid in 5 mM ammonium acetate (solvent A) and 0.2% acetic acid in ACN (solvent B). They were delivered at a flow rate of 0.6 mL/min. […]

dogs = assay: Electrophysiological variables (AERP, VERP, repolarization periods) in halothane-anesthetized dogs; assay type: in vivo, dog; settings: 3 mg/kg
Protocol: Animals were obtained through Kitayama Labes Co., Ltd. (Nagano, Japan). All experiments were approved by the Toho University Animal Care and User Committee (No. 18-51-395) and performed according to the Guideline for the Care and Use of Laboratory Animals of Toho University.
The dogs were initially anesthetized with thiopental sodium (30 mg/kg, i.v.). After intubation with a cuffed endotracheal tube, anesthesia was maintained by inhalation of halothane (1% v/v) vaporized in oxygen with a volume-limited ventilator (SN-480-3; Shinano Manufacturing Co., Ltd., Tokyo, Japan). Tidal volume and respiratory rate were set at 20 mL/kg and 15 breaths/min, respectively. […] To prevent blood clotting, heparin calcium (100 IU/kg) was intravenously administered through a flush line of the catheter sheath placed at the right femoral vein.
The lead II electrocardiogram was obtained from the limb electrodes. The P-wave duration, PR interval, QRS width and QT interval were measured, and QT interval was corrected with Van de Water's formula: QTc=QT-0.087×(RR-1,000) with RR given in ms. The J-Tpeak and Tpeak-Tend were measured as follows. When the end of T-wave was obscure, we used the monophasic action potential (MAP) signal as a guide to estimate the end. The J-Tpeak was corrected for the heart rate with a coefficient as previously described (J-Tpeakc=J-Tpeak/RR^0.58 with RR given in seconds).
A standard 6-French, quad-polar electrodes catheter (Cordis-Webster Inc., Baldwin Park, Calif., USA) was positioned at the non-coronary cusp of the aortic valve through the left femoral artery to obtain the His bundle electrogram. Another 6-French, quad-polar electrode catheter (Cordis-Webster Inc.) was positioned at the sinus nodal areas of the right atrium through the right femoral vein to electrically pace and to record the local electrogram. A bi-directional steerable MAP recording/pacing combination catheter (1675P; EP Technologies, Inc., CA, USA) was positioned at the endocardium of the interventricular septum in the right ventricle through the left femoral vein to obtain MAP signals. The signals were amplified with a DC preamplifier (model 300; EP Technologies, Inc.). The duration of the MAP signals was measured as an interval, along a horizontal line corresponding to the diastolic baseline, from the MAP upstroke to the desired repolarization level. The interval (ms) at 90% repolarization was defined as MAP90.
The heart was electrically driven with a cardiac stimulator (SEC-3102; Nihon Kohden Co., Ltd.) via the pacing electrodes of the combination catheter placed in the right ventricle or the electrodes of the catheter placed at the right atrium. The stimulation pulses were rectangular in shape, 1-2 V (about twice the threshold voltage) and 1 ms duration. The MAP90 of the ventricle was measured during sinus rhythm (MAP90(sinus)) and at a pacing cycle length of 400 ms (MAP90(CL400)) and 300 ms (MAP90(CL300)). The atrial effective refractory period (AERP) and ventricular effective refractory period (VERP) were assessed with the programmed electrical stimulation. The pacing protocol consisted of 5 beats of basal stimuli in a cycle length of 400 ms followed by an extra stimulus of various coupling intervals. Starting in the late diastole, the coupling interval was shortened in 5-ms decrements until the additional stimulus could no longer elicit a response. The AERP and VERP were defined as the shortest coupling interval that could produce a response. The duration of the terminal repolarization period of the ventricle, reflecting phase-3 repolarization time of the action potential, was calculated by the difference between the MAP90(CL400) and VERP (terminal repolarization period=MAP90(CL400)−VERP) at the same site to estimate the extent of electrical vulnerability of the ventricular muscle.

[1] = Metabolic stability (substrate depletion) with HLM; assay type: in vitro ADME, human; settings: for elimination rate constant k by HLM / half-life at 1 μM: 1 μM substrate, HLM 0.5 mg/mL; for half-life at 1 μM / microsomal CLint at 1 μM: human, pooled human liver microsomes, pH 7.4; for half-life at 1 μM: read-out: T1/2 by HLM; for microsomal CLint at 1 μM: substrate depletion, read-out: Intrinsic clearance, CLint HLM
Protocol: The metabolic stability experiments were performed to derive intrinsic clearance (CLint) values via the substrate depletion method. […] NADPH A was subsequently added to initiate the reaction. […] The reaction mixtures were incubated at 37° C. with gentle agitation. At the respective time points (0-60 min), 80 μL of the reaction mixture was quenched using an equal volume of ice-cold ACN with 1 μM tamoxifen as internal standard (IS). The samples were then centrifuged at 3220 g at 4° C. for 30 min before transferring the supernatant to a 96-well plate for liquid chromatography-tandem mass spectrometry (LC-MS/MS) analysis.
The mean of triplicate peak area ratios for each compound was normalized to that of the same compound at the 0 min time point to obtain the percentage of substrate remaining at each time point. This was plotted against incubation time for each compound and the data was then fitted to a one-phase decay model using GraphPad Prism software (version 8.02; GraphPad Inc., San Diego, Calif.) to obtain an estimation for the elimination rate constant (k). CLint was then calculated based on equation 3:
In equation 3, k=elimination rate constant (min^−1); V=volume of incubation mixture (mL); P=amount of protein in mixture (mg).

[2] = Aqueous solubility, MultiscreenHTS PCF Filter Plates; assay type: physicochemical; settings: aqueous buffer; universal buffer (pH 7.4)
Protocol: The aqueous solubility of each compound was measured in universal buffer (pH 7.4) using MultiscreenHTS PCF Filter Plates. The effective permeability of each compound was measured using the parallel artificial membrane permeability assay (PAMPA).

Row | SMILES | inhibition of CYP2J2 in hiPSC-CM (CYP2J2; 24 h) [%] | ΔAERP (dogs; 20 min after administration) | ΔVERP (dogs; 20 min after administration) | ΔJ-Tpeakc (early repolarization period) (dogs; 60 min after administration) | ΔTRP (terminal repolarization period) (dogs; 60 min after administration) | ΔTpeak-Tend (late repolarization period) (dogs; 60 min after administration) | elimination rate constant k by HLM [1] [min⁻¹] | half-life at 1 μM [1] [min] | microsomal CLint at 1 μM [1] [µL/min/mg] | solubility [2] [µg/mL] | inhibition at 24 h, 2 μM (CYP2J2; human, hiPSC-derived cardiomyocytes (hiPSC-CM), probe astemizole (1 μM)) [%] | ΔAERP (dogs; 30 min after administration) | ΔVERP (dogs; 30 min after administration) | ΔAERP (dogs; 45 min after administration) | ΔJ-Tpeakc (early repolarization period) (dogs; 45 min after administration) | ΔTRP (terminal repolarization period) (dogs; 45 min after administration) | ΔTpeak-Tend (late repolarization period) (dogs; 45 min after administration) | ΔVERP (dogs; 45 min after administration)
1 | CCCCc1oc2ccc(NS(C)(=O)=O)cc2c1C(=O)c1ccc(OCCCN(CCCC)CCCC)cc1.Cl [Dronedarone] | 98 | +43 | +23 | +7 | +11 | +25 | 0.06446 | 10.8 | 129 | 3.22 | – | – | – | – | – | – | – | –
2 | Cl.[2H]c1c(NS(C)(=O)=O)c([2H])c2c(C(=O)c3ccc(OCCCN(CCCC)CCCC)cc3)c(CCCC)oc2c1[2H] [Poyendarone, Methanesulfonamide, N-(2-butyl-3-(4-(3-(dibutylamino)propoxy)benzoyl)-1-benzo(4,6,7-d3)-furan-5-yl)hydrochloride] | – | – | – | – | – | – | 0.06472 | 10.7 | 129 | 2.43 | 50 | +25 | +14 | +34 | −5 | −1.5 | +1 | +13

Reference: US20220267288A1, “CARDIAC THERAPEUTIC” (priority 2019, published 2022)
